Bounds are passed on as bounds.

The first assay deals with hNav1.7 (Homo sapiens, UniProt Q15858). Put plainly: Voltage-dependent inhibition of the Nav1.7 sodium channel. It is filed as cell-based. The settings on record: voltage-dependent block of peak current. As for the experimental part: HEK-293 cells stably expressing wild-type (WT) hNav1.7 were obtained from Scottish Biomedical (Glasgow, Scotland, United Kingdom). Cells are maintained with standard tissue culture procedures and stable channel expression is maintained with 500 ug/mL G418 in the culture medium. Unless otherwise noted, all reagents are purchased from Sigma-Aldrich (St Louis, Mo., U.S.A.).
hNav1.7, sequence (Q15858 whole entry): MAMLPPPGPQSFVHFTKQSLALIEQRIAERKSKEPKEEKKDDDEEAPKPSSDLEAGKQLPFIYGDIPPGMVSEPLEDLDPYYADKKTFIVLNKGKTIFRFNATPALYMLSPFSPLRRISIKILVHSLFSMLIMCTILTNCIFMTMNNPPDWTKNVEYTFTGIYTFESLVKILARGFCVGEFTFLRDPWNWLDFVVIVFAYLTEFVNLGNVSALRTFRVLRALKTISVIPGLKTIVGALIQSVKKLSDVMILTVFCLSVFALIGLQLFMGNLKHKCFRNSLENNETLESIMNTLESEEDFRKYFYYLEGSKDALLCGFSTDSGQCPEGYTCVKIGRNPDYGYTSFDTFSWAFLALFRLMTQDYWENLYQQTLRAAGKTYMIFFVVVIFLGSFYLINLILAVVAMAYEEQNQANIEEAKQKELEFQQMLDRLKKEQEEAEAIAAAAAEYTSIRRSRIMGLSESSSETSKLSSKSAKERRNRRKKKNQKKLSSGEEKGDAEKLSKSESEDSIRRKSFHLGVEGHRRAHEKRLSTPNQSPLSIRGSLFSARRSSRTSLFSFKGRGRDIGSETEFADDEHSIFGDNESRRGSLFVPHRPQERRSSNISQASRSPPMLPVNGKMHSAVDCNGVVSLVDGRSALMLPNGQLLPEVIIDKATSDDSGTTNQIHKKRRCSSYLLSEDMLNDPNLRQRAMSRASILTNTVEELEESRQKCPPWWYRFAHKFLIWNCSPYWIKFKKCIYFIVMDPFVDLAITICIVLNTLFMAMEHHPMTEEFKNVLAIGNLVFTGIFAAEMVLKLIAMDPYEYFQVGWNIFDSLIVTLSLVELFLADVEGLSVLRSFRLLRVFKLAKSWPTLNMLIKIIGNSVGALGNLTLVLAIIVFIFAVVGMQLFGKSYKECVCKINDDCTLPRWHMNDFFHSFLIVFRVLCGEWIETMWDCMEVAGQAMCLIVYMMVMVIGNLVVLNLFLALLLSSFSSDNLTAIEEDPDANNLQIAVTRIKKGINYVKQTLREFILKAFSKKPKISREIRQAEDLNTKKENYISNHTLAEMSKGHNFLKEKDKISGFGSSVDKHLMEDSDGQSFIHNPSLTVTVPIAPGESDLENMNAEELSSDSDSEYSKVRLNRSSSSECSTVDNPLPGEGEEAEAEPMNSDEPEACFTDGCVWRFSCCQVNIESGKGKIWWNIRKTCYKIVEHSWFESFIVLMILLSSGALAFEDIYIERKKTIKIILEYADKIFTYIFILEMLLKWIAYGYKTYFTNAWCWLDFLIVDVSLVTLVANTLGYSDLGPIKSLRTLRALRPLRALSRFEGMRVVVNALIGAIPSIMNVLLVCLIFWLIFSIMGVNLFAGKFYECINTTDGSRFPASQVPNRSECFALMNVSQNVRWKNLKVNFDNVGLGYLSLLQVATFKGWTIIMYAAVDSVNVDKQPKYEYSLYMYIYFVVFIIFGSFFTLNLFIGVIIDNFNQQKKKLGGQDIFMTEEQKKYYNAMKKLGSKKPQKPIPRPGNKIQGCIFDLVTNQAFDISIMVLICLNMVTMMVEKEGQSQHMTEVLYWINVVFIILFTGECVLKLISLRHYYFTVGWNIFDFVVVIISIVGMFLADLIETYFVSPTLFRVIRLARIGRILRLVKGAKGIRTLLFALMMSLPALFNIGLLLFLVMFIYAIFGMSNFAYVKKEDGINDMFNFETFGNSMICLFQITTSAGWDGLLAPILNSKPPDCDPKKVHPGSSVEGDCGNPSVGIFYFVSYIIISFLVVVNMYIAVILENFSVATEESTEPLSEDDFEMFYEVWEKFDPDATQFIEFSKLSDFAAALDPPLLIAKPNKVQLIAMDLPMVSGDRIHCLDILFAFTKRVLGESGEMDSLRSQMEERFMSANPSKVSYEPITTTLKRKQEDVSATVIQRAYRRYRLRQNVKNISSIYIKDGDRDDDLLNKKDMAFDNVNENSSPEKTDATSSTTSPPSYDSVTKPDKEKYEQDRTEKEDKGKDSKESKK
(§1) Assays measuring Voltage-Dependent Block (VDB) of Nav1.7 are performed on an automated electrophysiology platform, QPatch 16X or QPatch HT (Sophion Bioscience, Copenhagen, Denmark), using the whole cell patch clamp technique to measure currents through the cell membrane. Series resistance compensation is set to 100% and series resistance and whole-cell compensation are performed automatically. Currents stored in the Sophion Bioscience Oracle database (Sophion Bioscience, Copenhagen, Denmark). Analysis is performed using QPatch Assay software and data are compiled in Excel 2010 (Microsoft, Seattle, Wash., U.S.A.).
The internal (pipette) solution consists of (in mM) 105 CsF, 10 NaF, 20 CsCl, 2 EGTA, 10 HEPES, 10 Dextrose with a pH of 7.35 and osmolarity of 300 mOsmol/kg. The external (bath) solution contains in (mM): 140 NaCl, 4 KCl, 1.8 CaCl2, 1 MgCl2, 10 dextrose, 10 HEPES, with a pH of 7.35 and osmolarity of 310 mOsmol/kg. Experiments are carried out at 23-25° C.
(§2) Compound stocks are routinely made by the Gilead Sample Bank in vials to 10 mM in dimethyl sulfoxide (DMSO). In some cases, when compounds are not soluble in DMSO, they are made in 100% ethanol. Stocks are sonicated as necessary. Compounds are diluted in extracellular solution using a MicroLab Nimbus (Hamilton Robotics, Reno, Nev.) to 1 μM in glass vials and transferred to glass well plates before robotic addition to the cells.
(§3) Cells are allowed to stabilize for 10 min after establishment of the whole-cell configuration before current is measured. The test compound is applied 3 times at 120 second intervals to allow for equilibration. Currents were leak subtracted using a P/4 procedure, low-pass Bessel filtered at 5 kHz and digitized at 25 kHz. Results are presented as mean percentage inhibition.
Voltage-dependent block of Nav1.7 peak current was measured during a voltage step to 0 mV (20 ms) following a voltage step pre-conditioning steps (−60 mV for 10 sec followed by −120 mV for 10 ms). The holding potential was −120 mV and this voltage protocol induces half maximal inactivation of Nav1.7. The voltage protocol for VDB was performed every 45 seconds in the absence and presence of compound and percentage inhibition was calculated with respect to the compound free condition.
With `Cc1cc(OC(F)(F)F)ccc1-c1cc2c(OCc3ncccn3)noc2cc1C` [Example 29, 6-methyl-5-(2-methyl-4-(trifluoromethoxy)phenyl)-3-(pyrimidin-2-ylmethoxy)benzo[d]isoxazole], the “Nav 1.7-VDB 1 uM” value is 34.2 percentage inhibition.

The target in a further assay is T1, hNav1.3 (SCN3A) (Homo sapiens, UniProt Q9NY46).
T1 construct: expressed in transfected cells
T1 sequence (Q9NY46 1-1951 isoform Q9NY46-2): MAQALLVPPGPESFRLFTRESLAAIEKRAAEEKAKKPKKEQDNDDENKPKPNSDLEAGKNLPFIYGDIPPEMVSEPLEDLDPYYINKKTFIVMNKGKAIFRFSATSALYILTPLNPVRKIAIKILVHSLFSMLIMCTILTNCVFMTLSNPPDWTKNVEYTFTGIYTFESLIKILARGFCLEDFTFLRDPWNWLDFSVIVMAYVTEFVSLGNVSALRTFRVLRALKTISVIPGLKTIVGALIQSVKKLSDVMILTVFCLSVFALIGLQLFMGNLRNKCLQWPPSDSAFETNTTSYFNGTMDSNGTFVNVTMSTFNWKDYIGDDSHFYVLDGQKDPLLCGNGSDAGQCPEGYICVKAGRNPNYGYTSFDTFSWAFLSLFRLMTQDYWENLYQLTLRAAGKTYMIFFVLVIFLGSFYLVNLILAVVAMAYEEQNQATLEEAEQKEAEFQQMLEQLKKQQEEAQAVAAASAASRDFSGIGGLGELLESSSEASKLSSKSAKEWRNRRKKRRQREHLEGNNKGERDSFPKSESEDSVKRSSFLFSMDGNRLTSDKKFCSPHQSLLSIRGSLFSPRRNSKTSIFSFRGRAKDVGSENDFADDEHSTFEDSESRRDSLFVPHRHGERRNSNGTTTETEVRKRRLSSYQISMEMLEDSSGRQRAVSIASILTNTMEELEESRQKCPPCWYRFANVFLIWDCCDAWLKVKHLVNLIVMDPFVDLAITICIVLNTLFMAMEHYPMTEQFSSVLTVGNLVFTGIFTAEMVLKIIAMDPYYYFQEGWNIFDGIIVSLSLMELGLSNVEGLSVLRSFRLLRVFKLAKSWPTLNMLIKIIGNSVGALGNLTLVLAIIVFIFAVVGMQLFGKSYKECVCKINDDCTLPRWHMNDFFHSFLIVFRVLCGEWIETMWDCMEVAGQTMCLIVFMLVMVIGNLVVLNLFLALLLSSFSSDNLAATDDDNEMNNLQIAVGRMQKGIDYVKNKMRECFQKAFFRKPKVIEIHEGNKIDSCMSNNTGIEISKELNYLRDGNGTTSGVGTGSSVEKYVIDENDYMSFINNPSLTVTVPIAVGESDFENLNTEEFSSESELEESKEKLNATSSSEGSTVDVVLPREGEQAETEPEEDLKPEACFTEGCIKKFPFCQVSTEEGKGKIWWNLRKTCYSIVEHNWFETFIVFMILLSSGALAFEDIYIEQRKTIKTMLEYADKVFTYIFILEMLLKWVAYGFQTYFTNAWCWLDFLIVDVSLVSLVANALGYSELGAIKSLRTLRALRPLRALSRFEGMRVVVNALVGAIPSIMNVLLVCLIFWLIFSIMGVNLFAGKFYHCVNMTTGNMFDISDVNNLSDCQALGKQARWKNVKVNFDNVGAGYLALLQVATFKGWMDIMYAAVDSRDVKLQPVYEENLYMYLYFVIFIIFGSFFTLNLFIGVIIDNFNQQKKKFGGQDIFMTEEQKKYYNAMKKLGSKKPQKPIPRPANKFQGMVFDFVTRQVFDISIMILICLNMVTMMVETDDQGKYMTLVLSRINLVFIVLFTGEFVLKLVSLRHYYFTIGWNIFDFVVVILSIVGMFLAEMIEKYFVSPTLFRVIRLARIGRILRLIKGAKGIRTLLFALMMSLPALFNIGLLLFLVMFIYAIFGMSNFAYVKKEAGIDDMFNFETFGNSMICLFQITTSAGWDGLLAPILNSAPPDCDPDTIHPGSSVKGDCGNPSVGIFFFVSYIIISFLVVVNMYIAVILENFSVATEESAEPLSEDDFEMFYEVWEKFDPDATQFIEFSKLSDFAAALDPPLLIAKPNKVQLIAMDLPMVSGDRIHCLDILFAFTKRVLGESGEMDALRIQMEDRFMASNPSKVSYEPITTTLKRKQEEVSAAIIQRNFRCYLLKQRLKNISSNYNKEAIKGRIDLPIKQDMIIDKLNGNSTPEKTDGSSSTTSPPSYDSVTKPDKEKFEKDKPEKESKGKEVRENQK
T1 sequence (Q07699 19-218 partner): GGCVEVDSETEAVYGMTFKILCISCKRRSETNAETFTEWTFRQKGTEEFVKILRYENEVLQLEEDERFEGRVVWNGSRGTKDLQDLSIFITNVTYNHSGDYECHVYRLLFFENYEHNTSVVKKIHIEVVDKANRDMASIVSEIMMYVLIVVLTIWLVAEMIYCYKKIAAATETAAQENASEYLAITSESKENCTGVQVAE
T1 sequence (O60939 30-215 partner): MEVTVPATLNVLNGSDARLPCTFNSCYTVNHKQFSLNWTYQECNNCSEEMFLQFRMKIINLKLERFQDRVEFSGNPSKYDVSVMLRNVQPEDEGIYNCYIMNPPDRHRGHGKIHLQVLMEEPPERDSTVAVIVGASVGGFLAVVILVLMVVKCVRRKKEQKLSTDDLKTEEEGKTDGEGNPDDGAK
Put plainly: Voltage-dependent inhibition of the Nav1.3 sodium channel. It is filed as cell-based. The settings on record: voltage-dependent block of peak current, read-out: Nav 1.3-VDB 1 uM. As for the experimental part:
HEK-293 cells stably expressing wild-type (WT) hNav1.3 (SCN3A NCBI # NP 001075, SCN1B NCBI # NM 001037.4, SCN2B NCBI # NM 004588.2) were used to record INa. Cells are maintained with standard tissue culture procedures and stable channel expression is maintained with 800 ug/mL G418 and 3 ug/mL Puromycin in the culture medium. Unless otherwise noted, all reagents are purchased from Sigma-Aldrich (St Louis, Mo., U.S.A.).
as §1, with “Nav1.3” for “Nav1.7”
The internal (pipette) solution consists of (in mM) 105 CsF, 10 NaF, 20 CsCl, 2 EGTA, 10 HEPES, 10 Dextrose with a pH of 7.35 and osmolarity of 300 mOsmol/kg. The external (bath) solution contains in (mM): 80 NaCl, 60 Choline-Cl, 4 KCl, 1.8 CaCl2, 1 MgCl2, 10 dextrose, 10 HEPES, with a pH of 7.35 and osmolarity of 310 mOsmol/kg. Experiments are carried out at 23-25° C.
as §2, §3
Voltage-dependent block of Nav1.3 peak current was measured during a voltage step to 0 mV (20 ms) following a voltage step pre-conditioning steps (−55 mV for 10 sec followed by −120 mV for 10 ms). The holding potential was −120 mV and this voltage protocol induces half maximal inactivation of Nav1.3. The voltage protocol for VDB was performed every 45 seconds in the absence and presence of compound and percentage inhibition was calculated with respect to the compound free condition.
Regarding `COc1cc(-c2ccc(C(F)(F)F)cc2F)cc2c(OCc3ncccn3)noc12` [Example 24, 5-(2-fluoro-4-(trifluoromethyl)phenyl)-7-methoxy-3-(pyrimidin-2-ylmethoxy)benzo[d]isoxazole], the inhibition at 1 µM is less than 5%.
The same measure, in the same setting: under `FC(F)(F)COc1ccc(-c2ccc3onc(OCc4ncccn4)c3c2)cn1` [Example 21, 3-(pyrimidin-2-ylmethoxy)-5-(6-(2,2,2-trifluoroethoxy)pyridin-3-yl)benzo[d]isoxazole] stands 11.2%; under `Cc1cc(OC(F)(F)F)ccc1-c1cc2c(OCc3ncccn3)noc2cc1C` [Example 29, 6-methyl-5-(2-methyl-4-(trifluoromethoxy)phenyl)-3-(pyrimidin-2-ylmethoxy)benzo[d]isoxazole], 39.5%.
On the same count and under the same terms, under `FC1(F)Oc2ccc(-c3ccc4onc(OCc5ncccn5)c4c3)cc2O1` [Example 30, 5-(2,2-difluorobenzo[d][1,3]dioxol-5-yl)-3-(pyrimidin-2-ylmethoxy)benzo[d]isoxazole] stands 21.5%.
For the compound `O=C1CC[C@H](COc2noc3ccc(-c4ccc(OC(F)(F)F)cc4)cc23)N1` [Example 61, (R)-5-(((5-(4-(trifluoromethoxy)phenyl)benzo[d]isoxazol-3-yl)oxy)methyl)pyrrolidin-2-one], the inhibition at 1 µM is 8.6%.
The same measure, in the same setting: under `FC(F)(F)Oc1ccc(-c2ccc3onc(OCc4cn5ccccc5n4)c3c2)cc1` [Example 51, 3-(imidazo[1,2-a]pyridin-2-ylmethoxy)-5-(4-(trifluoromethoxy)phenyl)benzo[d]isoxazole] stands 26.6%; under `COc1cc(-c2ccc(OC(F)(F)F)cc2C)cc2c(OCc3ncccn3)noc12` [Example 25, 7-methoxy-5-(2-methyl-4-(trifluoromethoxy)phenyl)-3-(pyrimidin-2-ylmethoxy)benzo[d]isoxazole], 12.3%.

Source of the values: patent publication US9416115B2, “Fused heterocyclic compounds as ion channel modulators” (Gilead Sciences, Inc., priority 2013, dated 2016).
